From patent publication US10259810B2, “N-sulfonylated pyrazolo[3,4-b]pyridin-6-carboxamides and method of use” (AbbVie S.à.r.l., priority 2015, dated 2019) come the findings set out here.

Structures are written as SMILES.

The target of assay [1] is T1, ΔF508-CFTR (Homo sapiens, UniProt P13569, DEL508-508).
T1 construct: host or cells: CFBE41o-, doxycycline-inducible
Put plainly: CFTR cell surface levels using HRP-tagged ΔF508-CFTR expressing CFBE cells, in the presence of a co-corrector. The format is cell-based. To be noted: HRP-tagged ΔF508-CFTR CFBE cells, in the presence of 3 μM co-corrector; for EC50: read-out: EC50. The procedure, abridged:
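Chemiluminescent read-out of surface HRP (15 min, dark) after PBS washes. Activity is normalized as 100×(sample−DMSO)/(3 μM co-corrector alone−DMSO).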

Assay [2] has as its target T1, ΔF508-CFTR. The assay is described as follows: CFTR cell surface levels using HRP-tagged ΔF508-CFTR expressing CFBE cells, intrinsic corrector capacity. Also noted: % Activation: concentration or dose not given beside the values. The format is cell-based. Particulars: HRP-tagged ΔF508-CFTR expressing CFBE41o- cells, compound alone (intrinsic corrector capacity), 20 hours at 33° C.; for EC50: read-out: EC50. Summed up: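 Read-out: chemiluminescent HRP activity of ECL4-HRP-tagged ΔF508-CFTR at the cell surface, 15 min substrate in dark. Normalized as 100×(sample−DMSO)/(positive control−DMSO).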

T1 sequence (P13569 with tags, fused parts or gaps DEL508-508): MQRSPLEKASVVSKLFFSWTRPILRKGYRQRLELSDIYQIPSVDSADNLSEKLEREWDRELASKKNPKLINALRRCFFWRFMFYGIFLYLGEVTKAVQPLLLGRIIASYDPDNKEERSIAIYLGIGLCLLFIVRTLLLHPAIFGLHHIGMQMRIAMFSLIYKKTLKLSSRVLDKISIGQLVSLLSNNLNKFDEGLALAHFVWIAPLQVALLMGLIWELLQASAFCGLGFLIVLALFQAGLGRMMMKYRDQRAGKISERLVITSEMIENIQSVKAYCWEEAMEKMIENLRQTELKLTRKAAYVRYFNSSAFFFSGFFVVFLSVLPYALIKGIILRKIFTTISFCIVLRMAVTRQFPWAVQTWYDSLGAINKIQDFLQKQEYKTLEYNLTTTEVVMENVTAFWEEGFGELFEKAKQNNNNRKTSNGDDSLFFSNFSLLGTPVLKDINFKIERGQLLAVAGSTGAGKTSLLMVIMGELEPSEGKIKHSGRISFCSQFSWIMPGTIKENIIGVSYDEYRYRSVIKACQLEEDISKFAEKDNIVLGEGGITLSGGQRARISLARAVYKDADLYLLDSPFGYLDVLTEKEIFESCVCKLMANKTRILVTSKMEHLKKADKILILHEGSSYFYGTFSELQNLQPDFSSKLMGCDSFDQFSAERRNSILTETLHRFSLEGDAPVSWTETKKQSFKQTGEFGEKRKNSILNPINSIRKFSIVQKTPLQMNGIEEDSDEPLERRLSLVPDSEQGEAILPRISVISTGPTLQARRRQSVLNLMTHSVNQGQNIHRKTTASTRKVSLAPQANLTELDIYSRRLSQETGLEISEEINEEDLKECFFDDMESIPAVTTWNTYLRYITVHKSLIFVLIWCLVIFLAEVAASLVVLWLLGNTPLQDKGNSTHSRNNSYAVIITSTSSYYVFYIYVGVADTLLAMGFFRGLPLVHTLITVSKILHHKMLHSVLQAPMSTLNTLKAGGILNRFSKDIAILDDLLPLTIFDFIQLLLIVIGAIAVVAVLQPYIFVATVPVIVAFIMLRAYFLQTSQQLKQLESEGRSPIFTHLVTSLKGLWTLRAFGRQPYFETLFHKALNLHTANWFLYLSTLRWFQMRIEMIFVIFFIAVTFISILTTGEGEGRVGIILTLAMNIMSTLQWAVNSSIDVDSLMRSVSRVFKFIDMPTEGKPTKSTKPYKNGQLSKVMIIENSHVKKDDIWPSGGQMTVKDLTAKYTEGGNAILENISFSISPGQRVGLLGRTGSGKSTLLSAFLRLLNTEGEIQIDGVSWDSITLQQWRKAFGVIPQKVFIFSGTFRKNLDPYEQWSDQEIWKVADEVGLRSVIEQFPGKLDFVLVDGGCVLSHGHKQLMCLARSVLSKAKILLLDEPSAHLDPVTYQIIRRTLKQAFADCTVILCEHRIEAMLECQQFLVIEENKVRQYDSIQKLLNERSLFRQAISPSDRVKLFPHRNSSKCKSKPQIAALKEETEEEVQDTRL

In the case of `CN(C1CCOCC1)C1CCN(c2cc(C(=O)NS(=O)(=O)N(C)C)nc3c2c(C2CCC2)nn3-c2ccc(F)cc2)CC1` [Compound 528, 3-cyclobutyl-N-(dimethylsulfamoyl)-1-(4-fluorophenyl)-4-{4-[methyl(oxan-4-yl)amino]piperidin-1-yl}-1H-pyrazolo[3,4-b]pyridine-6-carboxamide], in assay [1], the “% Activation” value is recorded as 357.9% and the EC50 (commonly the midpoint of the concentration-response curve) worked out at 834 nM. For the same compound, in assay [2], the “% Activation” value was 185.8% and the EC50 was 859 nM.

Turning to `COCC1CCN(c2cc(C(=O)NS(=O)(=O)N(C)C)nc3c2c(C2CCC2)nn3-c2ccnc(C3CCOCC3)c2)CC1` [Compound 531, 3-cyclobutyl-N-(dimethylsulfamoyl)-4-[4-(methoxymethyl)piperidin-1-yl]-1-[2-(oxan-4-yl)pyridin-4-yl]-1H-pyrazolo[3,4-b]pyridine-6-carboxamide], in assay [1], the “% Activation” value is recorded as 349.65% and the EC50 worked out at 63.5 nM. Also, in assay [2], the “% Activation” value is given as 182.8% and the 50% effective concentration (EC50) stood at 234 nM.

Regarding `CN(C)S(=O)(=O)NC(=O)c1cc(N2CCC(N3CC4CC3CO4)CC2)c2c(C3CCC3)nn(-c3ccc(F)cc3)c2n1` (stereo not drawn) [Compound 532, 3-cyclobutyl-N-(dimethylsulfamoyl)-1-(4-fluorophenyl)-4-[4-(2-oxa-5-azabicyclo[2.2.1]heptan-5-yl)piperidin-1-yl]-1H-pyrazolo[3,4-b]pyridine-6-carboxamide], the “% Activation” value in assay [1] is given as 342.83%; in assay [2], 151.95%. Moreover, the EC50 came out at 473 nM in assay [1] and 521 nM in assay [2].

For the compound `CN(C)S(=O)(=O)NC(=O)c1cc(N2CCC3(CC2)CC(N2CCOCC2)CO3)c2c(C3CCC3)nn(-c3ccc(F)cc3)c2n1` (stereo not drawn) [Compound 533, 3-cyclobutyl-N-(dimethylsulfamoyl)-1-(4-fluorophenyl)-4-[3-(morpholin-4-yl)-1-oxa-8-azaspiro[4.5]decan-8-yl]-1H-pyrazolo[3,4-b]pyridine-6-carboxamide], the “% Activation” value in assay [1] is on record as 322.45%; in assay [2], 156.3%. Moreover, the EC50 in assay [1] turned out to be 221 nM; in assay [2], 222 nM.

Regarding `CC(C)Oc1nn(C2CCCCC2)c2nc(C(=O)NS(=O)(=O)N(C)C)cc(-c3ccc(N4CCN(C(C)C)CC4)cc3)c12` [Compound 534, 1-cyclohexyl-N-(dimethylsulfamoyl)-3-[(propan-2-yl)oxy]-4-{4-[4-(propan-2-yl)piperazin-1-yl]phenyl}-1H-pyrazolo[3,4-b]pyridine-6-carboxamide], in assay [1], the “% Activation” value was found to be 289.35% and the EC50 worked out at 344 nM. For the same compound, in assay [2], the “% Activation” value is 105% and the EC50 turned out to be 241 nM.

For `CN(C)S(=O)(=O)NC(=O)c1cc(-c2ccc(N3CCN(C4CC4)CC3)nc2)c2c(C3CCC3)nn(C3CCCCC3)c2n1` [Compound 536, 3-cyclobutyl-1-cyclohexyl-4-[6-(4-cyclopropylpiperazin-1-yl)pyridin-3-yl]-N-(dimethylsulfamoyl)-1H-pyrazolo[3,4-b]pyridine-6-carboxamide], in assay [1], the “% Activation” value stood at 341.15% and the EC50 was 280 nM. In assay [2], the “% Activation” value came to 125.1% and the EC50 came out at 225 nM.

Consider `COC1CCN(S(=O)(=O)NC(=O)c2cc(N3CCC(N4CCOCC4)CC3)c3c(C4CCC4)nn(-c4ccc(F)cc4)c3n2)C1` (stereo not drawn) [Compound 538, 3-cyclobutyl-1-(4-fluorophenyl)-N-(3-methoxypyrrolidine-1-sulfonyl)-4-[4-(morpholin-4-yl)piperidin-1-yl]-1H-pyrazolo[3,4-b]pyridine-6-carboxamide], for which, in assay [1], the “% Activation” value is 427.95% and the EC50 is 358 nM. In addition, in assay [2], the “% Activation” value amounted to 228.9% and the EC50 came to 2070 nM.

Turning to `CN(C)S(=O)(=O)NC(=O)c1cc(-c2ccc(N3CCC(C#N)CC3)nc2)c2c(C3CCC3)nn(-c3ccccc3)c2n1` [Compound 539, 4-[6-(4-cyanopiperidin-1-yl)pyridin-3-yl]-3-cyclobutyl-N-(dimethylsulfamoyl)-1-phenyl-1H-pyrazolo[3,4-b]pyridine-6-carboxamide], the “% Activation” value in assay [1] is on record as 429.3%; in assay [2], 234.5%. The EC50 in assay [1] came to 38.6 nM; in assay [2], 71.7 nM.

For `COCC1CCN(S(=O)(=O)NC(=O)c2cc(N3CCC(N4CCOCC4)CC3)c3c(C4CCC4)nn(-c4ccc(F)cc4)c3n2)CC1` [Compound 540, 3-cyclobutyl-1-(4-fluorophenyl)-N-[4-(methoxymethyl)piperidine-1-sulfonyl]-4-[4-(morpholin-4-yl)piperidin-1-yl]-1H-pyrazolo[3,4-b]pyridine-6-carboxamide], in assay [1], the “% Activation” value worked out at 443.3% and the EC50 came out at 103 nM. Also, in assay [2], the “% Activation” value is listed as 248.8% and the EC50 is 123 nM.

Regarding `CC(C)N1CCN(c2ccc(-c3cc(C(=O)NS(=O)(=O)N(C)C)nc4c3c(C3CCC3)nn4C3CCCCC3)cn2)CC1` [Compound 542, 3-cyclobutyl-1-cyclohexyl-N-(dimethylsulfamoyl)-4-{6-[4-(propan-2-yl)piperazin-1-yl]pyridin-3-yl}-1H-pyrazolo[3,4-b]pyridine-6-carboxamide], in assay [1], the “% Activation” value was determined as 320.3% and the EC50 was 216 nM. Besides, in assay [2], the “% Activation” value came out at 153.2% and the concentration for a half-maximal effect (EC50) turned out to be 267 nM.

Turning to `CC(c1ccc(-c2cc(C(=O)NS(=O)(=O)N(C)C)nc3c2c(C2CCC2)nn3C2CCCCC2)cc1)N1CCOCC1` (stereo not drawn) [Compound 543, 3-cyclobutyl-1-cyclohexyl-N-(dimethylsulfamoyl)-4-{4-[1-(morpholin-4-yl)ethyl]phenyl}-1H-pyrazolo[3,4-b]pyridine-6-carboxamide], the “% Activation” value in assay [1] was determined as 336.1%; in assay [2], 115.7%. The values for the EC50 in assay [1] and in assay [2] were 139 nM and 238 nM, respectively.

As for `CC(C)Oc1nn(C2CCCCC2)c2nc(C(=O)NS(C)(=O)=O)cc(-c3ccc(C(=O)N4CCC(N(C)C)CC4)cc3)c12` [Compound 544, 1-cyclohexyl-4-{4-[4-(dimethylamino)piperidine-1-carbonyl]phenyl}-N-(methanesulfonyl)-3-[(propan-2-yl)oxy]-1H-pyrazolo[3,4-b]pyridine-6-carboxamide], the “% Activation” value is reported as 344.9% in assay [1] and 135.3% in assay [2]. Moreover, the values for the 50% effective concentration (EC50) in assay [1] and in assay [2] were 2000 nM and 3330 nM, respectively.

`COCCS(=O)(=O)NC(=O)c1cc(-c2ccc(C(=O)N3CCC(N(C)C)CC3)cc2)c2c(OC(C)C)nn(C3CCCCC3)c2n1` [Compound 545, 1-cyclohexyl-4-{4-[4-(dimethylamino)piperidine-1-carbonyl]phenyl}-N-(2-methoxyethanesulfonyl)-3-[(propan-2-yl)oxy]-1H-pyrazolo[3,4-b]pyridine-6-carboxamide]: in assay [1], the “% Activation” value stood at 318.7% and the concentration for a half-maximal effect (EC50) was found to be 1910 nM. Also, in assay [2], the “% Activation” value is reported as 112.7% and the EC50 is 3330 nM.

As to `COC1CCN(C2CCN(c3cc(C(=O)NS(C)(=O)=O)nc4c3c(C3CCC3)nn4-c3ccc(F)cc3)CC2)CC1` [Compound 548, 3-cyclobutyl-1-(4-fluorophenyl)-N-(methanesulfonyl)-4-(4-methoxy[1,4'-bipiperidin]-1'-yl)-1H-pyrazolo[3,4-b]pyridine-6-carboxamide], the “% Activation” value in assay [1] is on record as 556.9%; in assay [2], 307.2%. The EC50 was 553 nM in assay [1] and 654 nM in assay [2].

As for `O=C(NS(=O)(=O)C1CC1)c1cc(N2CCC(N3CCN(C4CC4)CC3)CC2)c2c(C3CCC3)nn(-c3ccccc3)c2n1` [Compound 550, 3-cyclobutyl-N-(cyclopropanesulfonyl)-4-[4-(4-cyclopropylpiperazin-1-yl)piperidin-1-yl]-1-phenyl-1H-pyrazolo[3,4-b]pyridine-6-carboxamide], the “% Activation” value in assay [1] came to 605.45%; in assay [2], 347%. Moreover, the EC50 in assay [1] is 173 nM; in assay [2], 361 nM.

For `CC(C)N1CCN(C2CCN(c3cc(C(=O)NS(=O)(=O)N(C)C)nc4c3c(C3CCC3)nn4C3CCCCC3)CC2)CC1` [Compound 553, 3-cyclobutyl-1-cyclohexyl-N-(dimethylsulfamoyl)-4-{4-[4-(propan-2-yl)piperazin-1-yl]piperidin-1-yl}-1H-pyrazolo[3,4-b]pyridine-6-carboxamide], in assay [1], the “% Activation” value worked out at 494.3% and the EC50 stood at 233 nM. For the same compound, in assay [2], the “% Activation” value was found to be 293% and the EC50 came to 1730 nM.

For the compound `CCCN(C)S(=O)(=O)NC(=O)c1cc(N2CCC(N3CCN(C4CC4)CC3)CC2)c2c(C3CCC3)nn(-c3ccccc3)c2n1` [Compound 554, 3-cyclobutyl-4-[4-(4-cyclopropylpiperazin-1-yl)piperidin-1-yl]-N-[methyl(propyl)sulfamoyl]-1-phenyl-1H-pyrazolo[3,4-b]pyridine-6-carboxamide], in assay [1], the “% Activation” value came out at 481% and the EC50 is 56.9 nM. In addition, in assay [2], the “% Activation” value was 269.45% and the EC50 worked out at 108 nM.

In the case of `CS(=O)(=O)NC(=O)c1cc(N2CCC(N3CCN(C4CC4)CC3)CC2)c2c(C3CCC3)nn(-c3ccccc3)c2n1` [Compound 556, 3-cyclobutyl-4-[4-(4-cyclopropylpiperazin-1-yl)piperidin-1-yl]-N-(methanesulfonyl)-1-phenyl-1H-pyrazolo[3,4-b]pyridine-6-carboxamide], in assay [1], the “% Activation” value came out at 595.8% and the EC50 was determined as 136 nM. Also, in assay [2], the “% Activation” value turned out to be 386% and the EC50 was determined as 64.7 nM.
